According to ChEMBL document CHEMBL5715954, “Silencing c-Myc translation as a therapeutic strategy through targeting PI3Kδ and CK1ε in hematological malignancies” (Blood, 2017):

Columns and labels:
Set-up in all cases: scale not given: the % may be the effect or the level left
[1] = molecular target: Protein-tyrosine kinase 6 (Homo sapiens) (UniProt Q13882); assay: Inhibition of human BRK assessed as enzyme activity at 1 uM using poly[Glu:Tyr] (4:1) as substrate preincubated for 20 mins followed by [gamma-33P]-ATP addition and measured after 120 mins by radiometric Hot-SpotSM Kinase assay relative to control
[2] = molecular target: Ephrin type-A receptor 4 (Homo sapiens) (UniProt P54764); assay: Inhibition of human EPHA4 assessed as enzyme activity at 1 uM using poly[Glu:Tyr] (4:1) as substrate preincubated for 20 mins followed by [gamma-33P]-ATP addition and measured after 120 mins by radiometric Hot-SpotSM Kinase assay relative to control
[3] = molecular target: T1, Muscle, skeletal receptor tyrosine-protein kinase (Homo sapiens) (UniProt O15146); assay: Inhibition of human MUSK assessed as enzyme activity at 1 uM using myelin basic protein as substrate preincubated for 20 mins followed by [gamma-33P]-ATP addition and measured after 120 mins by radiometric Hot-SpotSM Kinase assay relative to control
T1 sequence (whole entry): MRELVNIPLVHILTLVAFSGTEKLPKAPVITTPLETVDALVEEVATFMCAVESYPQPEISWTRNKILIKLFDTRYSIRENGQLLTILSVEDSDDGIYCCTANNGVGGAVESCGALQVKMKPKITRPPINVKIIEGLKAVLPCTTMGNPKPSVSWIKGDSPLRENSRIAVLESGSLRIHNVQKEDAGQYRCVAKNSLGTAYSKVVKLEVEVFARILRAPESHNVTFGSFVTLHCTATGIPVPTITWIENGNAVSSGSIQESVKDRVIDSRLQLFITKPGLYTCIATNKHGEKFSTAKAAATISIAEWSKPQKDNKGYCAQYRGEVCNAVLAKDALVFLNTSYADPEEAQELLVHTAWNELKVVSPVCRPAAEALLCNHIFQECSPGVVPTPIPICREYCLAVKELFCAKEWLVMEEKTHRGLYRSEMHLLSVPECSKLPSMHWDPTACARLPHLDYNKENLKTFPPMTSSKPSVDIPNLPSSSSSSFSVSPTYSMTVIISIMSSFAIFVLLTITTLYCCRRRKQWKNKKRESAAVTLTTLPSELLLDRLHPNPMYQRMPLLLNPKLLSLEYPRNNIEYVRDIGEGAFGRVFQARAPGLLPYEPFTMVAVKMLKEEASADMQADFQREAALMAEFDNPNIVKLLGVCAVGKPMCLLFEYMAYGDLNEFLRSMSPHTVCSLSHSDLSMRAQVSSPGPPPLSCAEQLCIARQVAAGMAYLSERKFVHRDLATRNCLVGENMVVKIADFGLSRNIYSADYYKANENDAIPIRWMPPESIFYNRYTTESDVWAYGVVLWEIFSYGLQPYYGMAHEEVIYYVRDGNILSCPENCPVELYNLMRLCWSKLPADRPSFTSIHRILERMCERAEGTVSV

[4] = molecular target: T2, Serine/threonine-protein kinase D3 (Homo sapiens) (UniProt O94806); assay: Inhibition of human PKCnu assessed as enzyme activity at 1 uM using KKLNRTLSVA as substrate preincubated for 20 mins followed by [gamma-33P]-ATP addition and measured after 120 mins by radiometric Hot-SpotSM Kinase assay relative to control
T2 sequence (whole entry): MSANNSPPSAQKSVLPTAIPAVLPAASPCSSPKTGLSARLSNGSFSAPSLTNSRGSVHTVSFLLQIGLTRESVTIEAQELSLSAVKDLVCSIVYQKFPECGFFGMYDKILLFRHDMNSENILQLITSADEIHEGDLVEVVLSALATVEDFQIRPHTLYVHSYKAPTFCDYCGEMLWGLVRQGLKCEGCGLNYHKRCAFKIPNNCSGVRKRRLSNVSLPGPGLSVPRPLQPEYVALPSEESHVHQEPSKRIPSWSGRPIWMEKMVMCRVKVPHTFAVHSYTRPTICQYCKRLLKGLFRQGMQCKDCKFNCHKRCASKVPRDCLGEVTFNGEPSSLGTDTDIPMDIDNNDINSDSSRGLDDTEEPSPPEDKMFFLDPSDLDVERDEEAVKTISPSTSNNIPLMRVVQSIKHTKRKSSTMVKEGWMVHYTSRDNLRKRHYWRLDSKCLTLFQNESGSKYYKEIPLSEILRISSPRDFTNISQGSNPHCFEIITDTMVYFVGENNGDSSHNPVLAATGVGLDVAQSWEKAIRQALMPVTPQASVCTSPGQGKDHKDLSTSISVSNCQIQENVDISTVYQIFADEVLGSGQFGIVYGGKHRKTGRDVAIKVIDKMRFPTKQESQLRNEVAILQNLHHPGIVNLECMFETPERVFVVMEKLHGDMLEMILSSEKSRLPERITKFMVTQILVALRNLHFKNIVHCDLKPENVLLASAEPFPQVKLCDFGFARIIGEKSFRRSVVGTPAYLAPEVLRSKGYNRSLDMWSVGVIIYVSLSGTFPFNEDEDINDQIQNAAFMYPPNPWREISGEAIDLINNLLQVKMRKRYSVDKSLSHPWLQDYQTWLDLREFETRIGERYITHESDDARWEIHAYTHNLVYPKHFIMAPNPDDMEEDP

[5] = molecular target: T3, Tyrosine-protein kinase Tec (Homo sapiens) (UniProt P42680); assay: Inhibition of human TEC assessed as enzyme activity at 1 uM using poly[Glu:Tyr] (4:1) as substrate preincubated for 20 mins followed by [gamma-33P]-ATP addition and measured after 120 mins by radiometric Hot-SpotSM Kinase assay relative to control
T3 sequence (whole entry): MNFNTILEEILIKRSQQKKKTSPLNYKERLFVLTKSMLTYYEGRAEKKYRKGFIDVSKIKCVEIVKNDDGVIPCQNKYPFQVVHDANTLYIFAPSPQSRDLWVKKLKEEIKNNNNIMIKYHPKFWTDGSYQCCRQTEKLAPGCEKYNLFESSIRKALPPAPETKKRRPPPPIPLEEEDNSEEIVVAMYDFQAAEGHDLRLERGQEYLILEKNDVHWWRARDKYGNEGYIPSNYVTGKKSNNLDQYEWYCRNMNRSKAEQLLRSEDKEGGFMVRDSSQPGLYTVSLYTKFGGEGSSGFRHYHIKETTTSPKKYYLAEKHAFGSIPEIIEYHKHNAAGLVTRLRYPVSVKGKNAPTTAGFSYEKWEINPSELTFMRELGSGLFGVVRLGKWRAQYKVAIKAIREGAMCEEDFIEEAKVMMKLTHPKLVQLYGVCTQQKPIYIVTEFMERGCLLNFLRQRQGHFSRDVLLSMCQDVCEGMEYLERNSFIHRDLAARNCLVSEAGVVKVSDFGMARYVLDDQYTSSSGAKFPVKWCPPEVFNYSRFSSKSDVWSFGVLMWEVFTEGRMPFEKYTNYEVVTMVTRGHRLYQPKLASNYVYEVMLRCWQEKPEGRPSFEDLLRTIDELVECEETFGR

Ephrin type-A receptor 4 (Homo sapiens), sequence (P54764 whole entry): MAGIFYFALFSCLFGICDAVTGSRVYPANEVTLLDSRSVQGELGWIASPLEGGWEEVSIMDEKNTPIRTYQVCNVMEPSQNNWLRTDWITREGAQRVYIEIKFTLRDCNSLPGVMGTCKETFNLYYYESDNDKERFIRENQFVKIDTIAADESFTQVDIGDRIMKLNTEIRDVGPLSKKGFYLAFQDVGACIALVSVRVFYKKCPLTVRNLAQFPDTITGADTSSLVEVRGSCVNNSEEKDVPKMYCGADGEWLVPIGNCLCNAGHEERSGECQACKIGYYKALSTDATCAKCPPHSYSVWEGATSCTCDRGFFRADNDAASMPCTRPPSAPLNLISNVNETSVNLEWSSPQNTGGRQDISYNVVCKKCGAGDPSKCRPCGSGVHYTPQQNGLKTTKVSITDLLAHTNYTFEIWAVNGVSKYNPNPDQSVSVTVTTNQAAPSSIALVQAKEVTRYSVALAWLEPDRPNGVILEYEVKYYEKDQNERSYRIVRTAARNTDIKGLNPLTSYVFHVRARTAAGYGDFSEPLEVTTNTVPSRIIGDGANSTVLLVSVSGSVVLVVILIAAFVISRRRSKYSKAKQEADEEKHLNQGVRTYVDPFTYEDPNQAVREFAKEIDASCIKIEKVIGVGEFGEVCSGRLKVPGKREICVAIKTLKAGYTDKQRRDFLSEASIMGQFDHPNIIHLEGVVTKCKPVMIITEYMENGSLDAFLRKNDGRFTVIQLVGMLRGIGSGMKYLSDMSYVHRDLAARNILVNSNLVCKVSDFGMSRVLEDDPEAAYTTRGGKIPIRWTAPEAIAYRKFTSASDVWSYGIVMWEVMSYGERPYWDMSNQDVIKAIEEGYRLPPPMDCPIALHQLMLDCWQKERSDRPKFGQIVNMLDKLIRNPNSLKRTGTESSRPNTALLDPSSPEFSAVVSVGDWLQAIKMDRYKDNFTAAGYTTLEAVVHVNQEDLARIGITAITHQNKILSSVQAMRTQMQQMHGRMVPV
Protein-tyrosine kinase 6 (Homo sapiens), sequence (Q13882 whole entry, looked up): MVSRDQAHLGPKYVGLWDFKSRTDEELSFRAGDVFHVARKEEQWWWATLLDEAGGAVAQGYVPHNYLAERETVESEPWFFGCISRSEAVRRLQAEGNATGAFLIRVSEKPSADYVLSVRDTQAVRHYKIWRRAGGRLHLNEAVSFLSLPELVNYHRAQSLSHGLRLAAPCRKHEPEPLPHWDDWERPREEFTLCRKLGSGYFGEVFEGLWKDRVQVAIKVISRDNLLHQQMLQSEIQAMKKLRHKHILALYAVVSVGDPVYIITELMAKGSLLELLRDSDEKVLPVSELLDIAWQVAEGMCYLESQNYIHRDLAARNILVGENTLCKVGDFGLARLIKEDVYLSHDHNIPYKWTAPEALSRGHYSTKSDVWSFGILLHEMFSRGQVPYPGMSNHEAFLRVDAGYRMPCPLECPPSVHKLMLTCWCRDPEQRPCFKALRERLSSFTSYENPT

CC[C@H](Nc1ncnc2[nH]cnc12)c1nc2cccc(F)c2c(=O)n1-c1ccccc1
Activity [1]: 97.6% | Activity [2]: 93.8% | Activity [3]: 94.4% | Activity [4]: 85.5% | Activity [5]: 99.3%

C[C@H](Nc1ncnc2nc[nH]c12)c1cc2cccc(Cl)c2c(=O)n1-c1ccccc1
Activity [1]: 98.3% | Activity [2]: 87.9% | Activity [3]: 95.8% | Activity [4]: 94.8% | Activity [5]: 95.8%

CC(C)Oc1ccc(-c2nn([C@@H](C)c3oc4ccc(F)cc4c(=O)c3-c3cccc(F)c3)c3ncnc(N)c23)cc1F [UMBRALISIB]
Activity [1]: 97.9% | Activity [2]: 85.9% | Activity [3]: 97.5% | Activity [4]: 98.4% | Activity [5]: 98.1%
